In US20250179061A1 (SIRONAX LTD., priority 2022, published 2025):

These compounds were tested on HT-29 cells (assay: HT-29 necroptosis cell viability assay (TNF-α/SMAC mimetic/zVAD-FMK, CellTiter-Glo)). Conditions: Homo sapiens, HT-29, HT-29 necroptosis cell viability, IC50 class symbols; read-out: Activity.
Type: cell-based
How it was run: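 Necroptosis was triggered by TNF-α (10 ng/ml), SMAC mimetic (6 μM) and zVAD-FMK (10 μM) in serum-free medium during 20 h compound exposure (10 concentrations, threefold steps) of HT-29 cells. IC50 from duplicate dose-responses uses CellTiter-Glo ATP luminescence as viability read-out.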

Compound | IC50
CC1(N)CN(c2cc(Oc3ccc(-n4ncn(Cc5c(F)cccc5F)c4=O)cc3F)c(Cl)cn2)C1 [Example 421, 2-(4-((2-(3-amino-3-methylazetidin-1-yl)-5-chloropyridin-4-yl)oxy)-3-fluorophenyl)-4-(2,6-difluorobenzyl)-2,4-dihydro-3H-1,2,4-triazol-3-one] | < 100 nM
Cc1cnc(N2CC(C)(N)C2)cc1Oc1ccc(-n2ncn(Cc3c(F)cccc3F)c2=O)cc1F [Example 422, 2-(4-((2-(3-amino-3-methylazetidin-1-yl)-5-methylpyridin-4-yl)oxy)-3-fluorophenyl)-4-(2,6-difluorobenzyl)-2,4-dihydro-3H-1,2,4-triazol-3-one] | < 100 nM
CC1(N)CN(c2nccc(Oc3ccc(-n4ncn(Cc5c(F)cccc5F)c4=O)cc3Cl)c2F)C1 [Example 423, 2-(4-((2-(3-amino-3-methylazetidin-1-yl)-3-fluoropyridin-4-yl)oxy)-3-chlorophenyl)-4-(2,6-difluorobenzyl)-2,4-dihydro-3H-1,2,4-triazol-3-one] | < 100 nM
CC1(N)CN(c2cc(Oc3ccc(-n4ncn(Cc5c(F)cccc5F)c4=O)cc3F)c(F)cn2)C1 [Example 424, 2-(4-((2-(3-amino-3-methylazetidin-1-yl)-5-fluoropyridin-4-yl)oxy)-3-fluorophenyl)-4-(2,6-difluorobenzyl)-2,4-dihydro-3H-1,2,4-triazol-3-one] | 100 to 1000 nM
C[C@H]1[C@@H](N)CN1c1cc(Oc2ccc(-n3ncn(Cc4c(F)cccc4F)c3=O)cc2F)c(Cl)cn1 [Example 425, 2-(4-((2-((2S,3S)-3-amino-2-methylazetidin-1-yl)-5-chloropyridin-4-yl)oxy)-3-fluorophenyl)-4-(2,6-difluorobenzyl)-2,4-dihydro-3H-1,2,4-triazol-3-one] | < 100 nM
C[C@H]1[C@@H](N(C)C)CN1c1cc(Oc2ccc(-n3ncn(Cc4c(F)cccc4F)c3=O)cc2F)c(Cl)cn1 [Example 426, 2-(4-((5-chloro-2-((2S,3S)-3-(dimethylamino)-2-methylazetidin-1-yl)pyridin-4-yl)oxy)-3-fluorophenyl)-4-(2,6-difluorobenzyl)-2,4-dihydro-3H-1,2,4-triazol-3-one] | < 100 nM
O=c1n(-c2ccc(Oc3cccnc3)cc2)nc(Cl)n1Cc1ccccc1 [Example 427, 4-benzyl-5-chloro-2-(4-(pyridin-3-yloxy)phenyl)-2,4-dihydro-3H-1,2,4-triazol-3-one] | < 100 nM
O=c1n(-c2ccc(Oc3ccccc3)cc2)nc2n1C(c1ccccc1)CC2 (centres unmarked) [Example 428, 2-(4-phenoxyphenyl)-5-phenyl-2,5,6,7-tetrahydro-3H-pyrrolo[2,1-c][1,2,4]triazol-3-one] | < 100 nM
Cn1c(Oc2ccc(-n3nc(Cl)n(Cc4ccccc4)c3=O)cc2)cccc1=O [Example 429, 6-(4-(4-benzyl-3-chloro-5-oxo-4,5-dihydro-1H-1,2,4-triazol-1-yl)phenoxy)-1-methylpyridin-2(1H)-one] | 100 to 1000 nM
O=c1n(-c2ccc(Oc3ccccc3[N+](=O)[O-])cc2)nc(Cl)n1Cc1ccccc1 [Example 430, 4-benzyl-5-chloro-2-(4-(2-nitrophenoxy)phenyl)-2,4-dihydro-3H-1,2,4-triazol-3-one] | 100 to 1000 nM
O=c1n(Cc2c(F)cccc2F)cnn1-c1ccc(Oc2ccnnc2)cc1 [Example 431, 4-(2,6-difluorobenzyl)-2-(4-(pyridazin-4-yloxy)phenyl)-2,4-dihydro-3H-1,2,4-triazol-3-one] | 1000 to 10000 nM
O=c1n(Cc2c(F)cccc2F)cnn1-c1ccc(Oc2ccncc2Br)cc1 [Example 432, 2-(4-((3-bromopyridin-4-yl)oxy)phenyl)-4-(2,6-difluorobenzyl)-2,4-dihydro-3H-1,2,4-triazol-3-one] | < 100 nM
O=c1n(Cc2c(F)cccc2F)cnn1-c1ccc(Oc2ccccc2[N+](=O)[O-])cc1 [Example 433, 4-(2,6-difluorobenzyl)-2-(4-(2-nitrophenoxy)phenyl)-2,4-dihydro-3H-1,2,4-triazol-3-one] | 100 to 1000 nM
O=c1n(Cc2c(F)cccc2F)cnn1-c1ccc(Oc2c(Cl)cccc2[N+](=O)[O-])cc1 [Example 434, 2-(4-(2-chloro-6-nitrophenoxy)phenyl)-4-(2,6-difluorobenzyl)-2,4-dihydro-3H-1,2,4-triazol-3-one] | < 100 nM
N#Cc1ccc(Oc2ccc(-n3ncn(Cc4c(F)cccc4F)c3=O)cc2)cc1 [Example 435, 4-(4-(4-(2,6-difluorobenzyl)-5-oxo-4,5-dihydro-1H-1,2,4-triazol-1-yl)phenoxy)benzonitrile] | 100 to 1000 nM
COc1cc(Oc2ccc(-n3ncn(Cc4c(F)cccc4F)c3=O)cc2)cc(OC)n1 [Example 436, 4-(2,6-difluorobenzyl)-2-(4-((2,6-dimethoxypyridin-4-yl)oxy)phenyl)-2,4-dihydro-3H-1,2,4-triazol-3-one] | 100 to 1000 nM

Compound | IC50
N#Cc1cccc(Oc2ccc(-n3ncn(Cc4c(F)cccc4F)c3=O)cc2)c1 [Example 437, 3-(4-(4-(2,6-difluorobenzyl)-5-oxo-4,5-dihydro-1H-1,2,4-triazol-1-yl)phenoxy)benzonitrile] | < 100 nM
O=c1n(Cc2c(F)cccc2F)cnn1-c1ccc(Oc2ccncc2)cc1 [Example 438, 4-(2,6-difluorobenzyl)-2-(4-(pyridin-4-yloxy)phenyl)-2,4-dihydro-3H-1,2,4-triazol-3-one] | 100 to 1000 nM
Nc1ccccc1Oc1ccc(-n2ncn(Cc3c(F)cccc3F)c2=O)cc1 [Example 439, 2-(4-(2-aminophenoxy)phenyl)-4-(2,6-difluorobenzyl)-2,4-dihydro-3H-1,2,4-triazol-3-one] | < 100 nM
Nc1cccc(Cl)c1Oc1ccc(-n2ncn(Cc3c(F)cccc3F)c2=O)cc1 [Example 440, 2-(4-(2-amino-6-chlorophenoxy)phenyl)-4-(2,6-difluorobenzyl)-2,4-dihydro-3H-1,2,4-triazol-3-one] | < 100 nM
Nc1cnc(Cl)cc1Oc1ccc(-n2ncn(Cc3c(F)cccc3F)c2=O)cc1 [Example 441, 2-(4-((5-amino-2-chloropyridin-4-yl)oxy)phenyl)-4-(2,6-difluorobenzyl)-2,4-dihydro-3H-1,2,4-triazol-3-one] | < 100 nM
Nc1cccc(F)c1Oc1ccc(-n2ncn(Cc3c(F)cccc3F)c2=O)cc1 [Example 442, 2-(4-(2-amino-6-fluorophenoxy)phenyl)-4-(2,6-difluorobenzyl)-2,4-dihydro-3H-1,2,4-triazol-3-one] | < 100 nM
Cn1ncc(N)c1Oc1ccc(-n2ncn(Cc3c(F)cccc3F)c2=O)cc1 [Example 443, 2-(4-((4-amino-1-methyl-1H-pyrazol-5-yl)oxy)phenyl)-4-(2,6-difluorobenzyl)-2,4-dihydro-3H-1,2,4-triazol-3-one] | 100 to 1000 nM
Cc1nc(C(N)=O)sc1Oc1ccc(-n2nc3n(c2=O)[C@H](c2ccccc2)CO3)cc1F [Example 445, (R)-5-(2-fluoro-4-(3-oxo-5-phenyl-5,6-dihydrooxazolo[2,3-c][1,2,4]triazol-2(3H)-yl)phenoxy)-4-methylthiazole-2-carboxamide] | < 100 nM
Cc1nc(C(O)C(F)F)sc1Oc1ccc(-n2ncn(Cc3c(F)cccc3F)c2=O)cc1F (centres unmarked) [Example 446, 2-(4-((2-(2,2-difluoro-1-hydroxyethyl)-4-methylthiazol-5-yl)oxy)-3-fluorophenyl)-4-(2,6-difluorobenzyl)-2,4-dihydro-3H-1,2,4-triazol-3-one] | < 100 nM
Cc1nc(C(N)C(F)F)sc1Oc1ccc(-n2ncn(Cc3c(F)cccc3F)c2=O)cc1F (centres unmarked) [Example 447, 2-(4-((2-(1-amino-2,2-difluoroethyl)-4-methylthiazol-5-yl)oxy)-3-fluorophenyl)-4-(2,6-difluorobenzyl)-2,4-dihydro-3H-1,2,4-triazol-3-one] | < 100 nM
C[C@H]1[C@@H](O)CN1c1cc(Oc2ccc(-n3ncn(Cc4c(F)cccc4F)c3=O)cc2F)c(F)cn1 [Example 448, 4-(2,6-difluorobenzyl)-2-(3-fluoro-4-((5-fluoro-2-((2S,3S)-3-hydroxy-2-methylazetidin-1-yl)pyridin-4-yl)oxy)phenyl)-2,4-dihydro-3H-1,2,4-triazol-3-one] | < 100 nM
CC(=O)c1nc(C)c(Oc2ccc(-n3ncn(Cc4c(F)cccc4F)c3=O)cc2F)s1 [Example 449, 2-(4-((2-acetyl-4-methylthiazol-5-yl)oxy)-3-fluorophenyl)-4-(2,6-difluorobenzyl)-2,4-dihydro-3H-1,2,4-triazol-3-one] | < 100 nM
Cc1nc(N2CC(N)(C(F)F)C2)sc1Oc1ccc(-n2ncn(Cc3c(F)cccc3F)c2=O)cc1F [Example 450, 2-(4-((2-(3-amino-3-(difluoromethyl)azetidin-1-yl)-4-methylthiazol-5-yl)oxy)-3-fluorophenyl)-4-(2,6-difluorobenzyl)-2,4-dihydro-3H-1,2,4-triazol-3-one] | < 100 nM
Cc1nc(N2CC(C)(N)C2)sc1Oc1ccc(-n2ncn(Cc3c(F)cccc3F)c2=O)cc1F [Example 451, 2-(4-((2-(3-amino-3-methylazetidin-1-yl)-4-methylthiazol-5-yl)oxy)-3-fluorophenyl)-4-(2,6-difluorobenzyl)-2,4-dihydro-3H-1,2,4-triazol-3-one] | < 100 nM
Cc1nc(N2CC(N)(CF)C2)sc1Oc1ccc(-n2ncn(Cc3c(F)cccc3F)c2=O)cc1F [Example 452, 2-(4-((2-(3-amino-3-(fluoromethyl)azetidin-1-yl)-4-methylthiazol-5-yl)oxy)-3-fluorophenyl)-4-(2,6-difluorobenzyl)-2,4-dihydro-3H-1,2,4-triazol-3-one] | < 100 nM
Cc1nc(N2CC(N)(CF)C2)sc1Cc1ccc(-n2ncn(Cc3c(F)cccc3F)c2=O)cc1F [Example 453, 2-(4-((2-(3-amino-3-(fluoromethyl)azetidin-1-yl)-4-methylthiazol-5-yl)methyl)-3-fluorophenyl)-4-(2,6-difluorobenzyl)-2,4-dihydro-3H-1,2,4-triazol-3-one] | < 100 nM
